Assay results reported in US20160120853A1, “TACROLIMUS AND ANALOGUES THEREOF FOR MEDICAL USE” (CHRONOS THERAPEUTICS LIMITED, priority 2013, published 2016).
Entries after “also recorded” stand apart in the source; their conditions may differ.

Legend:
Bus5 worms = assay: worm lifespan (Healthspan, Median lifespan) in Bus5 worms; format: in vivo; conditions: for Healthspan: Control 10.93; for Median Lifespan: Control 15.08
Source text: (§1) Worm cultures of at least 80 worms were manually assessed daily for the duration of the lifespan.

worms = assay: worm lifespan, strain not stated (close structural analogues, dosing frequency); format: in vivo; design: Healthspan / Median Lifespan / Max Lifespan: unit not given here; conditions: for ability to extend the lifespan of worms compared with tacrolimus: lifespan plots FIG. 7 / FIG. 8
Source text: as §1

Bus8 worms = assay: worm lifespan (Healthspan, Median lifespan) in Bus8 background; format: in vivo; design: Healthspan: unit not given here; conditions: for Healthspan: Control 6.87; for Median Lifespan: Control 10.10
Source text: as §1

[1] = blood / plasma metabolic biomarkers of aged rats after 6 m treatment; format: in vivo, rat
Source text: A range of techniques has been used to determine the effect RDC5 has on levels of blood biomarkers of obesity and metabolic disorders.
Metabolic biomarkers tested included: • Ketone Bodies—kinetic enzymatic • Free Fatty acids—ACS-ACOD Enzymatic • Glycerol—Calometric • Triglycerides—GPO-POD • HDL Cholesterol—CHO-PAP • LDL Cholesterol—Enzymatic • Total Cholesterol—CHO-PAP
The RDC5 treated and control treated animals had their blood plasma profiled at the end of the investigations.

TNF-α = assay: blood TNF-α levels in healthy human volunteers after 0.3 mg capsule; format: in vivo; conditions: 0.3 mg oral capsule
Experimental: (§2) One oral capsule as above containing 0.3 mg tacrolimus was administered to groups of healthy human volunteers. […] The average trough level of tacrolimus (level after 24 hours of administration of each dose) observed was approximately 220 pg/mL.

S. Cerevisiae = assay: yeast bioscreen, Chronological Lifespan Profile of ageing yeast cultures; format: cell-based
Source text: The yeast bioscreen measures the Chronological Lifespan Profile of an ageing yeast cultures. The median lifespan is defined as the time at which 50% of a given population has died. Relative viability (expressed in the below chart) compares the effect of treatment on a cultures viability as a fraction of control vehicle treated cultures.
RDC5 is thus believed to be able to delay ageing and the onset of age-related diseases such as unwanted fat accumulation.

Osteoblast cells = assay: response to oxidative stress of Osteoblast cells; format: cell-based
C. elegans = assay: lipid accumulation in worms, Oil-Red-O staining; format: in vivo; conditions: for age dependent increase in fat (lipid) accumulation: Oil-Red-O, versus DMSO control
Source text: Tacrolimus is able to delay the age dependent increase in fat accumulation in C. elegans. Worms are a versatile model of obesity ref: (Zheng & Greenway, 2012)
Oil-Red-O is a fat-soluble dye used for staining lipids and is quantified by colour light microscopy.

[2] = aged rat study: weekly body weight and survival; format: in vivo
Source text: Aged rats are known to increase in body weight dramatically in late adulthood. Aged rats were being used as a model in RAT_ND_01 and body weights and tissue samples were taken from the rats in this trial. Rats were 18 m of age at the start of the 6 m trial. The dosage is seen in FIG. 4.
Throughout this study (i.e. from 18 months of age onwards), individual weekly body weight assessments were made for both the control and RDC5 treated group. […] At the 1 and 2 week time-points, before the onset of treatment, no significant difference between RDC5 and control treatment could be observed. Control treated rat body weight continued to increase over time from approximately 250 g to over 320 g at the 6 month time-point (at 24 months of age). […] Weight levels dropped initially however not below a healthy age (approx. 230 g) and remained constant (+/−20 g) for the remainder of the study.
Fifty female Fischer rats initially aged 18 months were used in this study. Animals were housed at standard temperature (22±1° C.) in light controlled environment (lights on from 7 am to 8 pm) with ad libitum access to food and water with softer food introduced at 17 weeks to encourage food intake. Half the animals were treated with vehicle (5 ml/kg, s.c.) 6 days a week and half were treated with RDC5 (1 mg/kg, s.c.) 6 days a week. Individual body weights were recorded at baseline and then once a week until the end of the study.

[3] = blood levels of tacrolimus after one 0.3 mg oral capsule in healthy human volunteers; format: in vivo
Experimental: A hard gelatine capsule was filled with the following composition:
as §2

[4] = post mortem MRI scanning of aged rats, fat:lean ratio; format: in vivo, rat; conditions: for sub-cutaneous fat / visceral fat / fat within the body cavity: 24 month old rats, MRI, versus control treated
Source text: FIG. 11 presents MIR data comparing 3 month old untreated animal, 24 month old control treated animal and 24 month old tacrolimus treated animal. […] This is consistent with a cosmetic improvement (with respect to reduction in sub-cutaneous fat) and a health improvement (with respect to reduction of fat near internal organs) produced by tacrolimus treatment. The MIR images are marked (areas 1) to show internal fat areas. The sub-cutaneous fat layer is the light grey outer ring only easily seen in the 24 month old untreated control.

[5] = FIG. 8 experiment, Control 10.4
[6] = 6 m treatment in rats, versus control
[7] = blood plasma at end of study, versus control treated

C=CC[C@@H]1/C=C(\C)C[C@H](C)C[C@H](OC)[C@H]2O[C@@](O)(C(=O)C(=O)N3CCCC[C@H]3C(=O)O[C@H](/C(C)=C/[C@@H]3CC[C@@H](O)[C@H](OC)C3)[C@H](C)[C@@H](O)CC1=O)[C@H](C)C[C@@H]2OC [RDC5, tacrolimus]
Healthspan % increase wrt control (Bus5 worms; Bus5, 1 ug/ml): 33%
Median Lifespan % increase wrt control (Bus5 worms; Bus5, 1 ug/ml): 23%
Healthspan (Bus5 worms; Bus5, 1 ug/ml): 14.55
Median Lifespan (Bus5 worms; Bus5, 1 ug/ml): 18.54
Healthspan % increase wrt control (Bus5 worms; Bus5, 10 ug/ml): 23%
Median Lifespan % increase wrt control (Bus5 worms; Bus5, 10 ug/ml): 26%
Healthspan (Bus5 worms; Bus5, 10 ug/ml): 13.43
Median Lifespan (Bus5 worms; Bus5, 10 ug/ml): 19.03
Healthspan % increase wrt control (Bus5 worms; Bus5, 40 ug/ml): −6%
Median Lifespan % increase wrt control (Bus5 worms; Bus5, 40 ug/ml): 0.5%
Healthspan (Bus5 worms; Bus5, 40 ug/ml): 10.28
Median Lifespan (Bus5 worms; Bus5, 40 ug/ml): 15.17
Healthspan (worms; FIG. 7 experiment, Control 3.0, listed as RDC5 (Evita)): 4.5
Healthspan (worms; FIG. 7 experiment, Control 3.0, listed as RDC5 (Sigma)): 4.6
Median Lifespan (worms; FIG. 7 experiment, Control 5.7, listed as RDC5 (Evita)): 7.1
Median Lifespan (worms; FIG. 7 experiment, Control 5.7, listed as RDC5 (Sigma)): 7.8
Max Lifespan (worms; FIG. 7 experiment, Control 8.7, listed as RDC5 (Evita)): 10.3
Max Lifespan (worms; FIG. 7 experiment, Control 8.7, listed as RDC5 (Sigma)): 11.2
Healthspan (worms; FIG. 8 experiment, Control 5.9): 7.8
Median Lifespan (worms; FIG. 8 experiment, Control 8.1): 10.8
Max Lifespan (worms; [5]): 13.8
lifespan compared to control (worms; dosing on one third of days, except when dosing not commenced early in lifespan): significant increases
lifespan compared to control (worms; dosing on two thirds of days): significant increases
shape of dose response, worm lifespan extension (worms; in vivo): bell shaped dose response
Healthspan % increase wrt control (Bus8 worms; Bus8, 1 ug/ml): 0.5%
Median Lifespan % increase wrt control (Bus8 worms; Bus8, 1 ug/ml): 7.5%
Healthspan (Bus8 worms; Bus8, 1 ug/ml): 6.90
Median Lifespan (Bus8 worms; Bus8, 1 ug/ml): 10.86
Healthspan % increase wrt control (Bus8 worms; Bus8, 10 ug/ml): 14%
Median Lifespan % increase wrt control (Bus8 worms; Bus8, 10 ug/ml): 20%
Healthspan (Bus8 worms; Bus8, 10 ug/ml): 7.85
Median Lifespan (Bus8 worms; Bus8, 10 ug/ml): 12.18
Healthspan % increase wrt control (Bus8 worms; Bus8, 20 ug/ml): −9%
Median Lifespan % increase wrt control (Bus8 worms; Bus8, 20 ug/ml): 16%
Healthspan (Bus8 worms; Bus8, 20 ug/ml): 6.23
Median Lifespan (Bus8 worms; Bus8, 20 ug/ml): 11.70
Healthspan % increase wrt control (Bus8 worms; Bus8, 40 ug/ml): −3%
Median Lifespan % increase wrt control (Bus8 worms; Bus8, 40 ug/ml): 16%
Healthspan (Bus8 worms; Bus8, 40 ug/ml): 6.67
Median Lifespan (Bus8 worms; Bus8, 40 ug/ml): 11.70
dose at which efficacy peaks for Median Lifespan extension (Bus8 worms; Bus8 worms): 10 µg/mL
most efficacious dose at extending Healthspan (Bus8 worms; Bus8 worms, doses tested 1, 10, 20, 40 ug/ml): 10 µg/mL
Healthspan and Median lifespan of populations of worms (Bus8 worms; cultures of at least 80 worms, assessed daily): able to extend
least effective dose (Bus8 worms; dose response in worms, FIG. 9): 40 µg/mL
HDL [1, 6]: significant reductions
LDL [1, 6]: significant reductions
free fatty acids [1, 6]: reduction is not statistically significant
glycerol [1, 6]: reduction is not statistically significant
ketone bodies [1, 6]: reduction is not statistically significant
total cholesterol [1, 6]: significant reductions
triglycerides [1, 6]: significant reductions; also recorded: beneficial reduction
reduction in lactate dehydrogenase levels [1, 7]: 50%
reduction in total cholesterol [1, 7]: 40%
changes in blood TNF-α levels (TNF-α): No significant changes
effect on growth rate (S. Cerevisiae; S. Cerevisiae): without effecting growth rate
median lifespan of yeast cultures versus control treated cultures (S. Cerevisiae; S. Cerevisiae chronological lifespan): significantly longer
shape of dose response, response to oxidative stress (Osteoblast cells): bell shaped dose response
age dependent increase in fat (lipid) accumulation (C. elegans): shallower rise
age dependent increase in fat (lipid) accumulation (C. elegans; listed as Tacrolimus): able to delay
time at which maximal lipid accumulation happens (C. elegans; days post adulthood, DMSO control day 4): 7 days
age related weight gain ([2]; 1 mg/kg s.c. 6 days a week): did not show age related weight gain
survival of animals at the end of the study versus control ([2]; 1 mg/kg s.c. 6 days a week, 6 months): No significant differences
lighter than control treated age-matched rats at end of study ([2]; 6 month study, 24 months of age): 28%
average peak level of tacrolimus ([3]; 0.3 mg oral capsule, healthy volunteers): approximately 3700 pg/mL
AUC(0-t) ([3]; human, blood, 0.3 mg oral capsule, healthy volunteers, read-out: average area under the curve AUC 0-t): ~23.5 ng·h/mL
concentration at 24 h ([3]; human, blood, 0.3 mg oral capsule, level after 24 hours of administration of each dose, healthy volunteers, read-out: average trough level of tacrolimus): ~0.22 ng/mL
expected trough level ([3]; two capsules, single dose of 0.6 mg): about 440 pg/mL
sub-cutaneous fat [4]: less
visceral fat / fat within the body cavity [4]: less
sub-cutaneous fat ([4]; listed as tacrolimus): akin to the 3 month old untreated animal
visceral fat / fat within the body cavity ([4]; listed as tacrolimus): much less
average body fat ([4]; rats at 24 months, control roughly 40%, 3 month rats roughly 20%): roughly 30%

CCC[C@@H]1/C=C(\C)C[C@H](C)C[C@H](OC)C2O[C@@](O)(C(=O)C(=O)N3CCCC[C@H]3C(=O)O[C@H](/C(C)=C/[C@@H]3CC[C@@H](O)[C@H](OC)C3)[C@H](C)[C@@H](O)CC1=O)[C@H](C)C[C@@H]2OC [Dihydrotacrolimus]
Healthspan (worms; FIG. 8 experiment, Control 5.9): 7.3
Median Lifespan (worms; FIG. 8 experiment, Control 8.1): 10.3
Max Lifespan (worms; [5]): 13.2
ability to extend the lifespan of worms compared with tacrolimus (worms): almost as effectively as tacrolimus

CC[C@@H]1/C=C(\C)C[C@H](C)C[C@H](OC)[C@H]2O[C@@](O)(C(=O)C(=O)N3CCCC[C@H]3C(=O)O[C@H](/C(C)=C/[C@@H]3CC[C@@H](O)[C@H](OC)C3)[C@H](C)[C@@H](O)CC1=O)[C@H](C)C[C@@H]2OC [Ascomycin]
Healthspan (worms; FIG. 7 experiment, Control 3.0): 4.1
Median Lifespan (worms; FIG. 7 experiment, Control 5.7): 7.2
Max Lifespan (worms; FIG. 7 experiment, Control 8.7): 10.6
ability to extend the lifespan of worms compared with tacrolimus (worms): as effectively as tacrolimus
